pIC50: −log10 of the molar value.
Molecular target: prolyl 4-hydroxylase (collagen, EC 1.14.11.2)
Assay: Inhibition of prolyl 4-hydroxylase by chromatographic determination of [14C]-succinic acid on ion-exchange minicolumna

pIC50	Compound
5.30	O=C(NS(=O)(=O)c1ccccc1)c1ccc(-c2ccc(C(=O)NS(=O)(=O)c3ccccc3)cn2)nc1 [3-phenylsulfonamidocarbonyl-6-(5-phenylsulfonamidocarbonyl-2-pyridyl)pyridine]
6.49	CCOc1ccc(NC(=O)c2ccc(-c3ccc(C(=O)O)cn3)nc2)cc1 [5'-(4-Ethoxy-phenylcarbamoyl)-[2,2']bipyridinyl-5-carboxylic acid]

From BindingDB's records for doi:10.1021/jm00076a014 (Zeneca Pharmaceuticals, 1994)
